US8859776B2, “Substituted piperidines that increase p53 activity and the uses thereof” (Merck Sharp & Dohme Corp., priority 2009, dated 2014)

These compounds were tested against HDM2 protein (Homo sapiens, UniProt Q00987) (assay: fluorescence polarization assay for HDM2 inhibitory activity). Settings: read-out: FP (IC 50 uM).
Chain of HDM2 protein (Q00987 whole entry): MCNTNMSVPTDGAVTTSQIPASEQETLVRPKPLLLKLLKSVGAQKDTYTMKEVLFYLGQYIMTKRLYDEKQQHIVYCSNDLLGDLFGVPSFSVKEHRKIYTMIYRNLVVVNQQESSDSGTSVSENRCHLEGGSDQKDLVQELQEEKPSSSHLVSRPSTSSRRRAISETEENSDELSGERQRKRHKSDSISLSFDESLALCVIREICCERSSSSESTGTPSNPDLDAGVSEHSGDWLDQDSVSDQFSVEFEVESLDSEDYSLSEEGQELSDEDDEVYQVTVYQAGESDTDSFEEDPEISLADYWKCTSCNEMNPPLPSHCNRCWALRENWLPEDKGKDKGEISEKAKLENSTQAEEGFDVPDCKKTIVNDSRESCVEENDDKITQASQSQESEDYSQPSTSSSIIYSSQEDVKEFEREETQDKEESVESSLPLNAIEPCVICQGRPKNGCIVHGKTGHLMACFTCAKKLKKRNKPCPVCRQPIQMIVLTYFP
Format: binding
From the text: The inventive compounds can readily be evaluated to determine activity at the HDM2 protein by known methods such as the fluorescence polarization screening assay that measures the inhibitory concentration that achieves 50% of maximal activity (FP IC50) and the dissociation constant for inhibitor binding (FP Ki). [Zhang et al., J. Analytical Biochemistry 331: 138-146 (2004)].
An IC50 of 0.009 µM was found for `CCC[C@H]1N(C(=O)c2cnccc2C(F)(F)F)CCC[C@@]1(Oc1csc(C(F)(F)F)c1)C(=O)N1CCC(c2ccccc2OCCCC(=O)NS(=O)(=O)C2CC2)CC1` [Compound A2] in this work.
An IC50 of 0.014 µM was found for `CCC[C@H]1N(C(=O)c2cnccc2C(F)(F)F)CCC[C@@]1(Oc1csc(C(F)(F)F)c1)C(=O)N1CCC(C#N)(c2ccccc2OCCCCC(=O)O)CC1` [Compound A4] in this work.
An IC50 of 0.019 µM was found for `CCC[C@H]1N(C(=O)c2cnccc2C(F)(F)F)CCC[C@@]1(Oc1csc(C(F)(F)F)c1)C(=O)N1CCC(c2nn[nH]n2)(c2ccccc2OC)CC1` [Compound A54] in this work.
An IC50 of 0.013 µM was found for `CCC[C@H]1N(C(=O)c2cnccc2C(F)(F)F)CCC[C@@]1(Oc1ccc(C(F)(F)F)cc1)C(=O)N1CCC(C#N)(c2ccccc2CCC(=O)O)CC1` [Compound A83] in this work.
An IC50 of 0.011 µM was found for `CCC[C@H]1N(C(=O)c2ncccc2C(F)(F)F)CCC[C@@]1(Oc1csc(C(F)(F)F)c1)C(=O)N1CCC(O)(c2ccccc2OCCCP(=O)(O)O)CC1` [Compound A89, 3-(2-(4-hydroxy-1-((2R,3S)-2-propyl-1-(3-(trifluoromethyl)picolinoyl)-3-(5-(trifluoromethyl)thiophen-3-yloxy)piperidine-3-carbonyl)piperidin-4-yl)phenoxy)propylphosphonic acid] in this work.
An IC50 of 0.011 µM was found for `CCC[C@H]1N(C(=O)c2cnccc2C(F)(F)F)CCC[C@@]1(Oc1csc(C(F)(F)F)c1)C(=O)N1CCC(c2ccccc2CCc2nnn[nH]2)CC1` [Compound A133, (4-(2-(2-(1H-tetrazol-5-yl)ethyl)phenyl)piperidin-1-yl)((2R,3S)-2-propyl-1-(4-(trifluoromethyl)nicotinoyl)-3-(5-(trifluoromethyl)thiophen-3-yloxy)piperidin-3-yl)methanone] in this work.
An IC50 of 0.008 µM was found for `CCC[C@H]1N(C(=O)c2ncccc2C(F)(F)F)CCC[C@@]1(Oc1csc(C(F)(F)F)c1)C(=O)N1CCC(O)(c2ccccc2O[C@@H]2CC[C@](C)(C(=O)NS(C)(=O)=O)C2)CC1` [Compound A145] in this work.
